This is an account of results in patent US20240366612A1, “COMPOUNDS AND METHODS FOR MODULATING NUCLEIC ACID SPLICING” (REMIX THERAPEUTICS INC., priority 2021, published 2024).

Counter-ions that a name gives are not always drawn.

In one assay the test system is MYB mRNA. The assay is described as follows: Splicing RT-qPCR assay, MYB canonical (CJ) and alternative (AJ) junction mRNA. Type of assay: cell-based. The following applies: Homo sapiens, A673 or K562 cells, 24 hours treatment; for IC50: decrease in CJ mRNA; for AC50: increase in AJ mRNA. The method, then: (§1) Compounds described herein were used to modulate RNA transcript abundance in cells. The expression of a target mRNA was measured by detecting the formation of an exon-exon junction in the canonical transcript (CJ). A compound mediated exon-inclusion event was detected by observing an increase in formation of a new junction with an alternative exon (AJ). Real-time qPCR assays were used to detect these splicing switches and interrogate the potency of various compounds towards different target genes. A high-throughput real time quantitative PCR (RT-qPCR) assay was developed to measure these two isoforms of the mRNA (CJ and AJ) for exemplary genes, such as HTT, SMN2, and MYB, together with a control housekeeping gene, GAPDH or GUSB or PPIA, used for normalization. Briefly, the A673 or K562 cell line was treated with various compounds described herein (e.g., compounds of Formula (I)). After treatment, the levels of the HTT, MYB, or SMN2 mRNA targets were determined from each sample of cell lysate by cDNA synthesis followed by qPCR.
(§2) • Cells-to-CT 1-step kit: ThermoFisher A25602, Cells-to-CT lysis reagent: ThermoFisher 4391851C, TaqMan™ Fast Virus 1-Step Master Mix: ThermoFisher 4444436 • GAPDH: VIC-PL, ThermoFisher 4326317E (Assay: Hs99999905_ml)—used for K562/suspension cell lines • GUSB: VIC-PL, ThermoFisher 4326320E (Assay: Hs99999908_ml)—used for K562/suspension cell lines • PPIA: VIC-PL, ThermoFisher 4326316E (Assay: Hs99999904_ml)—used for A673/adherent cell lines
(§3) The A673 cell line was cultured in DMEM with 10% FBS. Cells were diluted with full growth media and plated in a 96-well plate (15,000 cells in 100 ul media per well). The plate was incubated at 37° C. with 5% CO2 for 24 hours to allow cells to adhere. An 11-point 3-fold serial dilution of the compounds was made in DMSO then diluted in media in an intermediate plate. Compounds were transferred from the intermediate plate to the cell plate with the top dose at a final concentration of 10 uM in the well. Final DMSO concentration was kept at or below 0.25%. The cell plate was returned to the incubator at 37° C. with 5% CO2 for an additional 24 hours.
(§4) The K562 cell line was cultured in IMDM with 10% FBS. For K562, cells were diluted with full growth media and plated in either a 96-well plate (50,000 cells in 50 uL media per well) or a 384-well plate (8,000-40,000 cells in 45 uL media per well). An 11-point 3-fold serial dilution of the compounds were made in DMSO then diluted in media in an intermediate plate. Compound was transferred from the intermediate plate to the cell plate with the top dose at a final concentration of 10 uM in the well. Final DMSO concentration was kept at or below 0.25%. Final volume was 100 uL for 96-well plate and 50 uL for 384-well plate. The cell plate was then placed in an incubator at 37° C. with 5% CO2 for 24 hours.
(§5) The cells were then gently washed with 50 uL-100 uL cold PBS before proceeding to addition of lysis buffer. 30 uL-50 μL of room temperature lysis buffer with DNAse I (and optionally RNAsin) was added to each well. Cells were shaken/mixed thoroughly at room temperature for 5-10 minutes for lysis to take place and then 3 uL-5 μL of room temperature stop solution was added and wells were shaken/mixed again. After 2-5 minutes, the cell lysate plate was transferred to ice for RT-qPCR reaction setup. The lysates could also be frozen at −80° C. for later use.
(§6) In some cases, a direct lysis buffer was used. An appropriate volume of 3×lysis buffer (10 mM Tris, 150 mM NaCl, 1.5%-2.5% Igepal and 0.1-1 U/uL RNAsin, pH 7.4) was directly added to either K562 or A673 cells in media and mixed by pipetting 3 times. The plates were then incubated at room temperature with shaking/rocking for 20-50 minutes to allow for lysis to take place. After this time, the cell lysate plate was transferred to ice to set up for the RT-qPCR reactions. The lysates could also be frozen at −80° C. for later use. […]
In general terms: Quantitative PCR measures a nucleic acid by following its amplification.

The next assay deals with HTT mRNA. Put plainly: Splicing RT-qPCR assay, HTT canonical (CJ) and alternative (AJ) junction mRNA. Type of assay: cell-based. The following applies: Homo sapiens, A673 or K562 cells, 24 hours treatment; for IC50: decrease in CJ mRNA; for AC50: increase in AJ mRNA. The method, then: as §1, §2, §3, §4, §5, §6
For assay [1], the system named is HiBiT-tagged MYB protein in K562 cells. Put plainly: HiBiT protein abundance assay, MYB. Type of assay: cell-based, human. The following applies: HiBiT-modified K562 cells, 24 hours, luminescence. The procedure, abridged: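 K562 lines with the endogenous target HiBiT-tagged, seeded in IMDM+1% FBS, got a 10-point 3-fold dilution series (top final 10 μM, DMSO ≤0.25%) for 24 hours at 37° C. Lytic LgBiT luminescence was normalized against unmodified-K562 and DMSO-only controls, and IC50 was interpolated at 50% from a four-parameter logistic fit.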
For orientation: The HiBiT peptide binds its large partner to form an active luciferase.

As usually defined, the IC50 is the concentration that gives 50% inhibition. One may read the AC50 as the concentration at which the activity in the assay is half-maximal.

Consider `Cc1cn2cc(-c3cc(=O)n4nc(N5CCNC6(CC6)C5)sc4n3)cc(F)c2n1` [Compound 209, 7-(8-fluoro-2-methylimidazo[1,2-a]pyridin-6-yl)-2-(4,7-diazaspiro[2.5]octan-7-yl)-5H-[1,3,4]thiadiazolo[3,2-a]pyrimidin-5-one], for which the IC50 (in the assay with MYB mRNA; in the assay with HTT mRNA; in assay [1]) was 1 to 10 µM in each case. The AC50 with MYB mRNA and in the assay on HTT mRNA was 1 to 10 µM in each case.
`Cc1cc(-c2nn3c(=O)cc(N4CCN(C)CC4)nc3s2)cc2cn(C)nc12` [Compound 210, 2-(2,7-dimethyl-2H-indazol-5-yl)-7-(4-methylpiperazin-1-yl)-5H-[1,3,4]thiadiazolo[3,2-a]pyrimidin-5-one]: the IC50 (with MYB mRNA; in the assay with HTT mRNA; in assay [1]) was 1 to 10 µM each time. In addition, the AC50 in the assay with MYB mRNA and in the assay with HTT mRNA was 1 to 10 µM in each case.
In the case of `Cc1cn2nc(-c3cc(=O)n4cc(N5CCNC6(CC6)C5)sc4n3)cc(C)c2n1` [Compound 211, 7-(2,8-dimethylimidazo[1,2-b]pyridazin-6-yl)-2-(4,7-diazaspiro[2.5]octan-7-yl)-5H-thiazolo[3,2-a]pyrimidin-5-one], the IC50 (in the assay with MYB mRNA; with HTT mRNA; in assay [1]) was 1 to 10 µM in each case. The AC50 in the assay on MYB mRNA was in the range of 0.1 to 1 µM; in the assay with HTT mRNA, 1 to 10 µM.
For the molecule `Cc1cn2nc(-c3cn4c(=O)cc(N5CCNC6(CC6)C5)nc4s3)cc(C)c2n1` [Compound 212, 2-(2,8-dimethylimidazo[1,2-b]pyridazin-6-yl)-7-(4,7-diazaspiro[2.5]octan-7-yl)-5H-thiazolo[3,2-a]pyrimidin-5-one], the IC50 (with MYB mRNA; with HTT mRNA; in assay [1]) was 1 to 10 µM each time. Besides, the AC50 in the assay on MYB mRNA and in the assay on HTT mRNA was 1 to 10 µM in each case.
In the case of `Cc1cn2cc(-c3cn4c(=O)cc(N5CCNCC5)nc4s3)cc(F)c2n1` [Compound 213, 2-(8-fluoro-2-methylimidazo[1,2-a]pyridin-6-yl)-7-(piperazin-1-yl)-5H-thiazolo[3,2-a]pyrimidin-5-one], the IC50 (in the assay on MYB mRNA; with HTT mRNA; in assay [1]) was greater than 10 µM each time. In addition, the AC50 in the assay with MYB mRNA and in the assay on HTT mRNA was greater than 10 µM in each case.
Consider `Cc1cn2cc(-c3nn4c(=O)cc(N5CCNCC5)nc4s3)cc(F)c2n1` [Compound 214, 2-(8-fluoro-2-methylimidazo[1,2-a]pyridin-6-yl)-7-(piperazin-1-yl)-5H-[1,3,4]thiadiazolo[3,2-a]pyrimidin-5-one], for which the IC50 in the assay with MYB mRNA was 1 to 10 µM; with HTT mRNA it was 1 to 10 µM; in assay [1], greater than 10 µM. Moreover, the AC50 with MYB mRNA was 1 to 10 µM; in the assay with HTT mRNA, greater than 10 µM.
Consider `Cc1cn2cc(-c3nn4c(=O)cc(N(C)C5CC(C)(C)NC(C)(C)C5)nc4s3)cc(F)c2n1` [Compound 215, 2-(8-fluoro-2-methylimidazo[1,2-a]pyridin-6-yl)-7-(methyl(2,2,6,6-tetramethylpiperidin-4-yl)amino)-5H-[1,3,4]thiadiazolo[3,2-a]pyrimidin-5-one], for which the half-maximal inhibitory concentration (IC50) (in the assay with MYB mRNA; in the assay with HTT mRNA; in assay [1]) was 1 to 10 µM each time. Besides, the AC50 with MYB mRNA and with HTT mRNA was 1 to 10 µM in each case.
As for `Cc1cn2cc(-c3nn4c(=O)cc(N5CCNC6(CC6)C5)nc4s3)cc(F)c2n1` [Compound 216, 2-(8-fluoro-2-methylimidazo[1,2-a]pyridin-6-yl)-7-(4,7-diazaspiro[2.5]octan-7-yl)-5H-[1,3,4]thiadiazolo[3,2-a]pyrimidin-5-one], the IC50 (in the assay on MYB mRNA; with HTT mRNA; in assay [1]) was 1 to 10 µM in each case. Besides, the AC50 with MYB mRNA and with HTT mRNA was 1 to 10 µM each time.
Turning to `Cc1cn2cc(-c3nn4c(=O)cc(N5CCN(C)CC5)nc4s3)cc(F)c2n1` [Compound 217, 2-(8-fluoro-2-methylimidazo[1,2-a]pyridin-6-yl)-7-(4-methylpiperazin-1-yl)-5H-[1,3,4]thiadiazolo[3,2-a]pyrimidin-5-one], the half-maximal inhibitory concentration (IC50) (in the assay on MYB mRNA; in the assay on HTT mRNA; in assay [1]) was 1 to 10 µM in each case. The AC50 with MYB mRNA and in the assay on HTT mRNA was 1 to 10 µM in each case.
For the molecule `Cc1cn2cc(-c3nn4c(=O)cc(N5CCN(C)C6(CC6)C5)nc4s3)cc(F)c2n1` [Compound 218, 2-(8-fluoro-2-methylimidazo[1,2-a]pyridin-6-yl)-7-(4-methyl-4,7-diazaspiro[2.5]octan-7-yl)-5H-[1,3,4]thiadiazolo[3,2-a]pyrimidin-5-one], the IC50 (in the assay with MYB mRNA; with HTT mRNA; in assay [1]) was 1 to 10 µM throughout. Also, the AC50 in the assay with MYB mRNA and in the assay with HTT mRNA was 1 to 10 µM throughout.
Take `Cn1cc2cc(-n3cnc4nc(N5CCNCC5)sc4c3=O)ccc2n1` [Compound 225, 6-(2-methyl-2H-indazol-5-yl)-2-(piperazin-1-yl)thiazolo[4,5-d]pyrimidin-7(6H)-one]: the IC50 (with MYB mRNA; in the assay on HTT mRNA; in assay [1]) was greater than 10 µM throughout. For the same molecule, the AC50 with MYB mRNA and with HTT mRNA was greater than 10 µM in each case.
As for `Cc1cn2cc(-n3cnc4nc(N5CCNCC5)sc4c3=O)cc(F)c2n1` [Compound 226, 6-(8-fluoro-2-methylimidazo[1,2-a]pyridin-6-yl)-2-(piperazin-1-yl)thiazolo[4,5-d]pyrimidin-7(6H)-one], the IC50 (with MYB mRNA; with HTT mRNA; in assay [1]) was 0.1 to 1 µM throughout. The half-maximal activity concentration (AC50) with MYB mRNA and in the assay with HTT mRNA was 0.1 to 1 µM throughout.
For `Cc1cn2cc(-n3cnc4nc(N(C)C5CC(C)(C)NC(C)(C)C5)sc4c3=O)cc(F)c2n1` [Compound 227, 6-(8-fluoro-2-methylimidazo[1,2-a]pyridin-6-yl)-2-(methyl(2,2,6,6-tetramethylpiperidin-4-yl)amino)thiazolo[4,5-d]pyrimidin-7(6H)-one, formate], the IC50 (in the assay with MYB mRNA; in the assay on HTT mRNA; in assay [1]) was greater than 10 µM each time. Also, the AC50 with MYB mRNA and with HTT mRNA was greater than 10 µM throughout.
For the molecule `Cc1cn2cc(-n3cnc4nc(N5CCN(C)CC5)sc4c3=O)cc(F)c2n1` [Compound 228, 6-(8-fluoro-2-methylimidazo[1,2-a]pyridin-6-yl)-2-(4-methylpiperazin-1-yl)thiazolo[4,5-d]pyrimidin-7(6H)-one], the IC50 (in the assay on MYB mRNA; in the assay on HTT mRNA; in assay [1]) was 1 to 10 µM in each case. The half-maximal activity concentration (AC50) in the assay on MYB mRNA and in the assay on HTT mRNA was 1 to 10 µM each time.
